Laboratory results published in patent US11180505B2, “Crystal form of PARP-1 inhibitor and preparation method therefor” (Jiangsu Hengrui Medicine Co., Ltd., priority 2017, dated 2021).
Like-named read-outs stand apart in the source and are kept apart here.

Legend:
[1] = accelerated stability test of the crystal form (XRD comparison); format: physicochemical; settings: 40° C., relative humidity of 75%, 6 months, XRD compared with 0 month
Method: The sample of Example 1 was subjected to an accelerated stability test (40° C., relative humidity of 75%) for 6 months and then sent to XRD for testing, and compared with the original data to confirm whether the crystal form changed.
Among them, the XRPD pattern of crystal form A of the compound of formula I after 6 months of the accelerated stability test (40° C., relative humidity of 75%) is shown in FIG. 3. The comparative XRPD pattern of crystal form A of the compound of formula I after accelerated stability test is shown in FIG. 4.

[2] = rat, in vivo; cited from earlier work
[3] = dog, in vivo; cited from earlier work
[4] = biological target: PARP enzyme (Homo sapiens, UniProt P09874); settings: in vitro; cited from earlier work
[5] = system: transplanted tumor; settings: nude-mouse transplanted tumor model; cited from earlier work

PARP enzyme, sequence (P09874 whole entry): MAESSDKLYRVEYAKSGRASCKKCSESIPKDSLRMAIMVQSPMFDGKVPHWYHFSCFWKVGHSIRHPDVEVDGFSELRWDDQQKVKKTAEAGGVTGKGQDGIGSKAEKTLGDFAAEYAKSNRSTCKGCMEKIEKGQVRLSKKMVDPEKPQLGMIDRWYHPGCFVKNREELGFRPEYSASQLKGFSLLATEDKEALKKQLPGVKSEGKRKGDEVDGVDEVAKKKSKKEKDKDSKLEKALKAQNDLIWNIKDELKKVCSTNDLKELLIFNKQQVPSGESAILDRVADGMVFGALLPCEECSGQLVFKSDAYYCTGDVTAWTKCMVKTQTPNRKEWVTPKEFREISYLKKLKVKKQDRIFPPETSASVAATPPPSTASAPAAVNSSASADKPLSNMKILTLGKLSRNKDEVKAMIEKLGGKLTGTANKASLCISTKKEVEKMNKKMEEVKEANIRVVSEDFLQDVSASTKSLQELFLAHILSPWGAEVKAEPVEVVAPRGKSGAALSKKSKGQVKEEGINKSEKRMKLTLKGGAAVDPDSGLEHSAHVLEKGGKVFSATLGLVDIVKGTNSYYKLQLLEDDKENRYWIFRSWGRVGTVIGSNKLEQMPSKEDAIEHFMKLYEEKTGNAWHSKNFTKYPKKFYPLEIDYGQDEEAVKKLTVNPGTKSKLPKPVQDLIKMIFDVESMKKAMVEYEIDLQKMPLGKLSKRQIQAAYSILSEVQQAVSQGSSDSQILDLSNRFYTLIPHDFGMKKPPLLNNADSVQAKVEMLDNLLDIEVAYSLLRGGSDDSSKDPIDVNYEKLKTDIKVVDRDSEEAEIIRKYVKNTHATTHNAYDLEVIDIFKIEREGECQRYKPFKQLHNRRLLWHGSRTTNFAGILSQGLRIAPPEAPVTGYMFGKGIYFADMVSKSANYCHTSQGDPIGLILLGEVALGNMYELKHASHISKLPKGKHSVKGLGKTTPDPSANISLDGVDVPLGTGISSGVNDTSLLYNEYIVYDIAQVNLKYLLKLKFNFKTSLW

Compound | crystal form change after accelerated stability test [1] | safety (toxicological data) [2] | safety (toxicological data) [3] | inhibition of the activity of PARP enzyme [4] | inhibition of tumor growth [5]
O=C(c1cc(Cc2n[nH]c(=O)c3ccccc23)ccc1F)N1CCn2nc(C(F)(F)F)nc2C1 [Example 1] | did not change | – | – | – | –
O=C(c1cc(Cc2n[nH]c(=O)c3ccccc23)ccc1F)N1CCn2nc(C(F)(F)F)nc2C1 [formula I] | – | has a corresponding safety | has a corresponding safety | inhibit the activity of PARP enzyme significantly | inhibit tumor growth significantly
